US4206215A, “Antimicrobial bis-[4-(substituted-amino)-1-pyridinium]alkanes” (Sterling Drug Inc., priority 1977, dated 1980)
Like-named read-outs stand apart in the source and are kept apart here.

Legend:
C. albicans 10231 = assay: In vitro antifungal activity, MIC (modified Autotiter method); type: cell-based, Candida albicans; conditions: Candida albicans, 10231, 20 h, 18-20 hours at 37° C.; read-out: MIC C. albicans 10231
In short: (§1)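 Autotiter-based broth dilution, modified from Goss: 1,000 mcg./ml. stock, twofold steps in sterile water, then inoculated 2x semisynthetic medium (glucose) dispensed automatically. Final range 500–0.06 mcg./ml.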

C. albicans Wisc. = assay: as above; type: cell-based, Candida albicans; conditions: 18-20 hours at 37° C.; for MIC: Candida albicans, 20 h, read-out: MIC C. albicans Wisc.
In short: as §1

E. Coli ATCC 8739 = assay: Effect of serum on bacteriostatic activity (serial tube dilution test); type: cell-based, Escherichia coli; conditions: for Fold Increase in MIC E. Coli ATCC 8739: 40% vs 0% horse serum; for MIC: Escherichia coli, ATCC8739
In short: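 Bacteriostatic potency against Escherichia coli ATCC 8739 was measured with the standard serial tube dilution test. Minimum inhibitory concentrations were determined in pairs, with the test medium either lacking serum or containing 40% horse serum heat-inactivated at 56° C. for 30 min. Serum impact was reported as the fold increase in MIC (mcg./ml.).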

[1] = tested on: Streptococcus mutans OMZ-61; assay: Dental plaque-preventive effectiveness in the presence of sterile human saliva (50%); type: cell-based; conditions: for Dental Plaque Preventive Activity in 50% saliva Minimum Effective Conc. (%): 50% sterile human saliva
Procedure: The dental plaque preventive activity of certain of the compounds of the present invention was determined by measuring the ability of these compounds to inhibit the production of dental plaque by Streptococcus mutans OMZ-61 as follows:
A culture medium for the plaque-producing Streptococcus mutans OMZ-61 containing 1.5 g. of BBL beef extract, 5 g. of sodium chloride, 10 g. of dehydrated trypticase, 5 g. of sucrose and sufficient distilled water to give a total volume of 1000 ml. is adjusted to pH 7.0 and sterilized by membrane filtration. The medium is dispensed aseptically in 10-ml. aliquots into 150×16 mm. test tubes and stored at refrigeration temperature until used.
Two concentrations of the compound to be tested are prepared by dissolving 100 mg. of the compound in 1 ml. of distilled water with the aid of sufficient 0.1 N sodium hydroxide, 10% dimethylsulfoxide or 10% N,N-dimethylformamide and diluting the resulting solution to 10 ml. with distilled water. This 1.0% solution and a 1:10 dilution in distilled water (0.1%) are sterilized by membrane filtration before use.
A sterile piece of plaque-free natural tooth enamel or synthetic hydroxylapatite is suspended in each concentration of compound for two 1-minute periods, each followed by a 1-minute air drying period. Each piece is then suspended and agitated for 5 minutes in individual test tubes containing sterile distilled water (rinse). They are then suspended in 10 ml. of liquid beef extract medium to which has been added 0.3 ml. of a 24-hr. anaerobic culture of Streptococcus mutans. The tubes containing the "treated" hydroxylapatite and the Streptococcus mutans are then incubated anaerobically at 37° C. for 24 hours. The same process of two 1-minute soaks in the solution of compound, each followed by 1 minute of air drying and the final 5-minute rinse is repeated before once again suspending the hydroxylapatite in a fresh tube containing 10 ml. of beef extract medium and 0.3 ml. of inoculum. At the end of the second 24-hour period, each piece of hydroxylapatite is rinsed for 1 minute in 3 successive tubes of distilled water. These are then suspended for 1 minute in a solution of F, D & C Red No. 3 dye. This staining procedure is used in order to identify more easily the development of plaque after the 48-hour period of exposure to the plaque-producing organism. The staining period is followed by another 10-second rinse to remove excess dye. Any plaque formation stains a brilliant pink. […] Active compounds are tested at successively lower doses in order to determine the minimum effective concentration. On some occasions, the interference of plaque production is caused by the inhibition of growth of the organism in the culture medium because the compound has been leached from the hydroxylapatite to produce an antibacterial level in the medium. When this occurs, the compound is tested at lower concentrations until the growth of the organism in the surrounding medium is equal to that in the nonmedicated control culture. Plaque may or may not be formed at these lower concentrations.
Dental plaque-preventive effectiveness in the presence of sterile human saliva (50%) was determined for representative examples.

Ps. aerug. MGH-2 = assay: In vitro antibacterial activity, MIC (modified Autotiter method); type: cell-based, Pseudomonas aeruginosa; conditions: Pseudomonas aeruginosa, 20 h, 18-20 hours at 37° C.; read-out: MIC Ps. aerug. MGH-2
In short: as §1

T. menta. 9129 = assay: In vitro antifungal activity, MIC (modified Autotiter method); type: cell-based, Trichophyton mentagrophytes; conditions: 18-20 hours at 37° C.; for MIC: Trichophyton mentagrophytes, 20 h, read-out: MIC T. menta. 9129
In short: as §1

E. coli AB1932-1 = assay: In vitro antibacterial activity, MIC (modified Autotiter method); type: cell-based, Escherichia coli; conditions: 18-20 hours at 37° C.; for MIC: Escherichia coli, AB19321, 20 h, read-out: MIC E. coli AB1932-1
In short: as §1

E. coli 100/B22 = assay: as above; type: cell-based, Escherichia coli; conditions: for MIC E. coli 100/B22: 18-20 hours at 37° C.; for MIC: Escherichia coli, 100/B22, 20 h, read-out: MIC E. coli 100/B22, 18-20 hours at 37° C.
In short: as §1

E. coli Vogel = assay: as above; type: cell-based, Escherichia coli; conditions: 18-20 hours at 37° C.; for MIC: Escherichia coli, 20 h, read-out: MIC E. coli Vogel
In short: as §1

[2] = tested on: Herpes simplex type 2 virus; assay: Virucidal activity in vitro (plaque inhibition test); type: cell-based; conditions: 2 mg. of test compound on growth medium
Procedure: Virucidal activity of representative examples against Herpes simplex type 2 virus was determined in vitro employing a procedure similar to the plaque inhibition test for detection of specific inhibitors of DNA-containing viruses published by E. C. Herrmann, Jr., Proc. Soc. Exp. Biol. Med. 107, 142 (1961) wherein 2 mg. of the test compound was placed on the surface of the growth medium.

S. Aureus Smith = assay: In vitro antibacterial activity, MIC (modified Autotiter method); type: cell-based, Staphylococcus aureus; conditions: Staphylococcus aureus, 20 h, 18-20 hours at 37° C.; read-out: MIC S. Aureus Smith
In short: as §1

[3] = 40% heat inactivated horse serum, read-out: MIC E. Coli ATCC 8739 40% Serum
[4] = read-out: MIC E. Coli ATCC 8739 0% Serum

| SMILES | MIC (C. albicans 10231) [µg/mL] | MIC (C. albicans Wisc.) [µg/mL] | Fold Increase in MIC E. Coli ATCC 8739 (E. Coli ATCC 8739) [fold] | MIC (E. Coli ATCC 8739; [3]) [µg/mL] | MIC (E. Coli ATCC 8739; [4]) [µg/mL] | Dental Plaque Preventive Activity in 50% saliva Minimum Effective Conc. (%) [1] | MIC (Ps. aerug. MGH-2) [µg/mL] | MIC T. menta. 9129 (T. menta. 9129) [µg/mL] | MIC E. coli AB1932-1 (E. coli AB1932-1) [µg/mL] | MIC E. coli 100/B22 (E. coli 100/B22) [µg/mL] | MIC E. coli Vogel (E. coli Vogel) [µg/mL] | Virucidal activity against Herpes simplex type 2 virus [2] | MIC (S. Aureus Smith) [µg/mL] | MIC C. albicans Wisc. (C. albicans Wisc.; listed as SC) [µg/mL] | Plaque formation in 50% saliva plaque test (footnote 1) ([1]; 0.005%, 50% saliva) | Bacterial growth in 50% saliva plaque test (footnote 1) ([1]; 0.05% concentration, 50% saliva) | MIC (T. menta. 9129) [µg/mL] | MIC (E. coli AB1932-1) [µg/mL] | MIC (E. coli 100/B22) [µg/mL] | MIC (E. coli Vogel) [µg/mL] |
| --- | --- | --- | --- | --- | --- | --- | --- | --- | --- | --- | --- | --- | --- | --- | --- | --- | --- | --- | --- | --- |
| CCCCCCCNc1cc[n+](CCCCCCCCCCCC[n+]2ccc(NCCCCCCC)cc2)cc1 [Example 3, 1,12-bis-[4-(heptylamino)-1-pyridinium]dodecane dibromide] | 1.56 | 3.13 | 32 | 25 | 0.78 | 0.1% | 6.25 | 1.56 | 6.25 | 3.13 | 1.56 | active | 0.39 |  |  |  |  |  |  |  |
| CCCCCCNc1cc[n+](CCCCCCCCCCCCCC[n+]2ccc(NCCCCCC)cc2)cc1 [Example 5C, 1,14-bis-[4-(hexylamino)-1-pyridinium]tetradecane dibromide] | 1.5 |  | 32 | 25 | 0.78 | 0.05% | 6 |  |  |  |  | active | 0.38 | 0.76 | plaque formed | No bacterial growth | 0.76 | 0.76 | 0.76 | 0.76 |
| CCCCCCCCNc1cc[n+](CCCCCCCC[n+]2ccc(NCCCCCCCC)cc2)cc1 [Example 11, 1,8-bis-[4-(octylamino)-1-pyridinium]octane dibromide] | 1 | 1 | 64 | 31.2 | 0.5 | 0.05% | 15.6 |  |  | 1.95 |  | active | 0.25 |  |  |  | 0.5 | 1 |  | 1 |
| CCCCCCCNc1cc[n+](CCCCCCCCC[n+]2ccc(NCCCCCCC)cc2)cc1 [Example 24, 1,9-bis-[4-(heptylamino)-1-pyridinium]nonane dibromide] | 1 | 1 | 32 | 7.8 | 0.25 | Ca. 0.005% | 62.5 |  |  |  |  | active | 0.25 |  |  |  | 0.5 | 1 | 1.95 | 1 |
| CCCCC(CC)CNc1cc[n+](CCCCCCCCCC[n+]2ccc(NCC(CC)CCCC)cc2)cc1 (stereo not shown) [Example 58, 1,10-bis-[4-(2-ethylhexylamino)-1-pyridinium]decane dibromide] | 3 | 1.5 | 32 | 15.6 | 0.5 | Ca. 0.005% | 48.4 |  | 0.37 |  |  | active | 0.24 |  |  |  | 0.76 |  | 0.76 | 1.5 |
